Earlier results as cited in article PMC10928227, “Assessing biologic/toxicologic effects of extractables from plastic contact materials for advanced therapy manufacturing using cell painting assay and cytotoxicity screening” (Scientific Reports, 2024).
Read-outs that look alike come from different tables or passages of the source.

Conditions: cited from earlier work; for Risk based on in vitro genotoxicity data from database (from QSAR-toolbox): not checked for in vivo relevance, ref QSAR Toolbox 4.5 database
[1] = in Vitro, Chinese hamster, Chinese Hamster Lung (CHL), Duration 24÷48 h, Database Genotoxicity OASIS, ref Sofuni, T., Ed. (1998). Data Book of Chromosomal Aberration Test In Vitro, Revised Edition
[2] = Salmonella typhimurium, Strain TA 97, in Vitro, Database: Bacterial mutagenicity ISSSTY, ref CCRIS database,Toxnet databases (Romualdo Benigni)
[3] = Salmonella typhimurium, Strain TA 98, in Vitro, Database: Bacterial mutagenicity ISSSTY, ref CCRIS database,Toxnet databases (Romualdo Benigni)
[4] = Salmonella typhimurium, Strain TA 100, in Vitro, Database: Bacterial mutagenicity ISSSTY, ref CCRIS database,Toxnet databases (Romualdo Benigni)
[5] = Salmonella typhimurium, Strain TA 102, in Vitro, Database: Bacterial mutagenicity ISSSTY, ref CCRIS database,Toxnet databases (Romualdo Benigni)
[6] = Salmonella typhimurium, Strain TA 1535, in Vitro, Database: Bacterial mutagenicity ISSSTY, ref CCRIS database,Toxnet databases (Romualdo Benigni)
[7] = Salmonella typhimurium, Strain TA 1537, in Vitro, Database: Bacterial mutagenicity ISSSTY, ref CCRIS database,Toxnet databases (Romualdo Benigni)
[8] = in Vitro, Salmonella typhimurium, No Strain Information, Database Genotoxicity OASIS, ref Journal of Medicinal Chemistry 48 (1), pp. 312-32, 25, Kazius J, McGuire R., Bursi R
[9] = in Vitro, Salmonella typhimurium, Strain TA 97, Database Genotoxicity OASIS, ref P&G
[10] = in Vitro, Salmonella typhimurium, Strain TA 98, Database Genotoxicity OASIS, ref P&G
[11] = in Vitro, Salmonella typhimurium, Strain TA 100, Database Genotoxicity OASIS, ref P&G
[12] = in Vitro, Salmonella typhimurium, Strain TA 1535, Database Genotoxicity OASIS, ref P&G
[13] = in Vitro, Salmonella typhimurium, Strain TA 1537, Database Genotoxicity OASIS, ref P&G
[14] = in Vitro, Salmonella typhimurium, Strain TA 1538, Database Genotoxicity OASIS, ref P&G
[15] = in Vitro, Salmonella typhimurium, Strain TA 98, Database Bacterial mutagenicity ISSSTY, ref CCRIS database,Toxnet databases, Romualdo Benigni, 02.5.2011

In the case of `CC(C)(C)c1ccc(O)c(C(C)(C)C)c1` [2,4-Di-tert-butylphenol], the “Risk based on in vitro genotoxicity data from database (from QSAR-toolbox)” value is listed as “Positive in vitro data”.

For `Sc1nc2ccccc2s1` [2-Mercaptobenzothiazole], the “Risk based on in vitro genotoxicity data from database (from QSAR-toolbox)” value is given as “Positive in vitro data”.

In the case of `OCC(O)CO` [56-81-5], the “Chromosome aberration, in Vitro Mammalian Chromosome Aberration Test” value (shortened to “Chromosome aberration”) (in Vitro, Chinese hamster, Chinese Hamster Lung (CHL), Database Genotoxicity OASIS, ref ECHA, Registration dossier) is given as “Negative” and the “Chromosome aberration” value [1] is given as “Negative”.

In the case of `Cc1ccc(S(N)(=O)=O)cc1` [70-55-3], the “Gene mutation, Bacterial Reverse Mutation Assay (e.g. Ames Test)” value (“Gene mutation” for short) (Salmonella typhimurium, No Strain Information, in Vitro, Database: Genotoxicity OASIS, ref NIHS Japan) is listed as “Negative”, the “Gene mutation” value (Salmonella typhimurium, Strain TA 98, in Vitro, Database: Genotoxicity OASIS, ref https://doi.org/10.22427/NTP-DATA-022-00002-0001-000-7, National Institute of Environmental Health Sciences) is listed as “Negative” and the “Gene mutation” value (Salmonella typhimurium, Strain TA 100, in Vitro, Database: Genotoxicity OASIS, ref https://doi.org/10.22427/NTP-DATA-022-00002-0001-000-7, National Institute of Environmental Health Sciences) is listed as “Negative”. For the same compound, the “Gene mutation” value (Salmonella typhimurium, Strain TA 102, in Vitro, Database: Genotoxicity OASIS, ref https://doi.org/10.22427/NTP-DATA-022-00002-0001-000-7, National Institute of Environmental Health Sciences) was “Negative”, the “Gene mutation” value (Salmonella typhimurium, Strain TA 1535, in Vitro, OECD Guideline 471, Database: Genotoxicity OASIS, ref Japan Existing Chemical Data Base) was “Negative” and the “Chromosome aberration” value (in Vitro, Chinese hamster, Chinese Hamster Lung Cells, Guidelines For Screening Mutagenicity Testing of Chemicals (Chemical Substances Control Law of Japan), Database Toxicity Japan MHLW, ref Japan Ministry of Health Labour and Welfare, http://dra4.nihs.go.jp/mhlw_data/jsp/SearchPageENG.jsp) was “Negative”. The “Gene mutation” value (in Vitro, E. coli WP2 uvrA, Database Genotoxicity OASIS, ref ECHA, Registration dossier) was “Negative”, the “Gene mutation” value (in Vitro, Escherichia coli, Strain WP2 UvrA, Guidelines For Screening Mutagenicity Testing of Chemicals (Chemical Substances Control Law of Japan), Database Toxicity Japan MHLW, ref Japan Existing Chemical Data Base, http://dra4.nihs.go.jp/mhlw_data/jsp/SearchPageENG.jsp) was “Negative” and the “Chromosome aberration” value (in Vitro, No Strain Information, Database Genotoxicity OASIS, ref NIHS Japan) was “Negative”. The “Gene mutation” value (in Vitro, Salmonella typhimurium, Strain TA 97, Guidelines For Screening Mutagenicity Testing of Chemicals (Chemical Substances Control Law of Japan), Database Toxicity Japan MHLW, ref Japan Existing Chemical Data Base, http://dra4.nihs.go.jp/mhlw_data/jsp/SearchPageENG.jsp) was “Negative”, the “Gene mutation” value (in Vitro, Salmonella typhimurium, Strain TA 100, Guidelines For Screening Mutagenicity Testing of Chemicals (Chemical Substances Control Law of Japan), Database Toxicity Japan MHLW, ref Japan Existing Chemical Data Base, http://dra4.nihs.go.jp/mhlw_data/jsp/SearchPageENG.jsp) was “Negative” and the “Gene mutation” value (in Vitro, Salmonella typhimurium, Strain TA 1535, Guidelines For Screening Mutagenicity Testing of Chemicals (Chemical Substances Control Law of Japan), Database Toxicity Japan MHLW, ref Japan Existing Chemical Data Base, http://dra4.nihs.go.jp/mhlw_data/jsp/SearchPageENG.jsp) was “Negative”. The “Gene mutation” value (in Vitro, Salmonella typhimurium, Strain TA 1535, OECD Guideline 471, Database Genotoxicity OASIS, ref Japan Existing Chemical Data Base) was “Negative”, the “Gene mutation” value (in Vitro, Salmonella typhimurium, Strain TA 1537, Guidelines For Screening Mutagenicity Testing of Chemicals (Chemical Substances Control Law of Japan), Database Toxicity Japan MHLW, ref Japan Existing Chemical Data Base, http://dra4.nihs.go.jp/mhlw_data/jsp/SearchPageENG.jsp) was “Negative” and the “Gene mutation” value (in Vitro, Salmonella typhimurium, Strain TA 1537, OECD Guideline 471, Database Genotoxicity OASIS, ref Japan Existing Chemical Data Base) was “Negative”.

In the case of `CCC(C)=O` [78-93-3], the “Gene mutation” value [2] is given as “Negative”, the “Gene mutation” value [3] is given as “Negative” and the “Gene mutation” value [4] is given as “Negative”. The “Gene mutation” value [5] was “Negative”, the “Gene mutation” value (Salmonella typhimurium, Strain TA 104, in Vitro, Database: Bacterial mutagenicity ISSSTY, ref CCRIS database,Toxnet databases (Romualdo Benigni)) was “Negative” and the “Gene mutation” value [6] was “Negative”. The “Gene mutation” value [7] was “Negative”, the “Gene mutation” value (Salmonella typhimurium, Strain TA 1538, in Vitro, Database: Bacterial mutagenicity ISSSTY, ref CCRIS database,Toxnet databases (Romualdo Benigni)) was “Negative” and the “Gene mutation” value [8] was “Negative”. The “Gene mutation” value [9] was “Negative”, the “Gene mutation” value [10] was “Negative” and the “Gene mutation” value [11] was “Negative”. The “Gene mutation” value (in Vitro, Salmonella typhimurium, Strain TA 102, OECD Guideline 471, Database Genotoxicity OASIS, ref CCRIS database,Toxnet databases) was “Negative”, the “Gene mutation” value [12] was “Negative” and the “Gene mutation” value [13] was “Negative”. For the same compound, the “Gene mutation” value [14] was “Negative”.

For `CCCCOC(=O)c1ccccc1C(=O)OCCCC` [84-74-2], the “Gene mutation” value [3] is listed as “Negative”, the “Gene mutation” value [6] is listed as “Negative” and the “Gene mutation” value [7] is listed as “Negative”. For the same compound, the “Chromosome aberration” value (in Vitro, Chinese hamster, Chinese Hamster Lung (CHL), Duration 6÷18 h, Database Genotoxicity OASIS, ref Sofuni, T., Ed. (1998). Data Book of Chromosomal Aberration Test In Vitro, Revised Edition) was “Negative”, the “Chromosome aberration” value [1] was “Negative” and the “Gene mutation” value [9] was “Negative”. The “Gene mutation” value [15] was “Negative”, the “Gene mutation” value [10] was “Negative” and the “Gene mutation” value [11] was “Negative”. The “Gene mutation” value (in Vitro, Salmonella typhimurium, Strain TA 1535, Database Bacterial mutagenicity ISSSTY, ref CCRIS database,Toxnet databases, Romualdo Benigni, 02.5.2011) was “Negative”, the “Gene mutation” value [12] was “Negative” and the “Gene mutation” value (in Vitro, Salmonella typhimurium, Strain TA 1537, Database Bacterial mutagenicity ISSSTY, ref CCRIS database,Toxnet databases, Romualdo Benigni, 02.5.2011) was “Negative”. The “Gene mutation” value [13] was “Negative” and the “Gene mutation” value [14] was “Negative”.

For `CC(=O)c1ccccc1` [98-86-2], the “Gene mutation” value [2] is given as “Negative”, the “Gene mutation” value [3] is given as “Negative” and the “Gene mutation” value [4] is given as “Negative”. The “Gene mutation” value [5] was “Negative”, the “Gene mutation” value [6] was “Negative” and the “Gene mutation” value [7] was “Negative”. For the same compound, the “Gene mutation” value [8] was “Negative”, the “Gene mutation” value (in Vitro, Salmonella typhimurium, Strain TA 97, Database Bacterial mutagenicity ISSSTY, ref CCRIS database,Toxnet databases, Romualdo Benigni, 02.5.2011) was “Negative” and the “Gene mutation” value (in Vitro, Salmonella typhimurium, Strain TA 97, Database Genotoxicity OASIS, ref FUJITA H. AND SASAKI M., KENKYU NENPO - TOKYO-TORITSU EISEI KENKYUSHO 38:423-430, 1987) was “Negative”. For the same compound, the “Gene mutation” value [15] was “Negative” and the “Gene mutation” value (in Vitro, Salmonella typhimurium, Strain TA 102, Database Genotoxicity OASIS, ref FUJITA H. AND SASAKI M., KENKYU NENPO - TOKYO-TORITSU EISEI KENKYUSHO 38:423-430, 1987) was “Negative”.
